Where “and” joins values, the source holds several entries; their conditions need not be identical. Identical values can stand only once.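 These data come from cells grown in 96-well plates and exposed to compound for 48 hours at five concentrations. GI50: concentration for 50% inhibition of growth. TGI: concentration producing complete growth inhibition.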
Experiments:
Assay in all cases: inhibition of tumour cell growth, NCI panel, 48 h
[1] = tested on: 786-0 renal
[2] = tested on: CAKI-1 renal
[3] = tested on: CCRF-CEM leukemia
[4] = tested on: HOP-62 NSCLC
[5] = tested on: KM12 colon
[6] = tested on: MALME-3M melanoma
[7] = tested on: NCI-H522 lung
[8] = tested on: RPMI-8226 leukemia
[9] = tested on: RXF 393 renal
[10] = tested on: SK-MEL-28 melanoma

CCN(CC)CCCC(C)Nc1ccnc2cc(Cl)c(SCc3ccccc3)cc12 (stereo not given)
GI50 [1]: 1470 nM | TGI [1]: 2850 nM | GI50 [2]: 1190 nM | TGI [2]: 2940 nM | GI50 [3]: 442 nM | TGI [3]: 4940 nM | GI50 [4]: 1370 nM | TGI [4]: 3010 nM | GI50 [5]: 1430 nM | TGI [5]: 3960 nM | GI50 [6]: 1710 nM | TGI [6]: 3680 nM | GI50 [7]: 580 nM | TGI [7]: 2010 nM | GI50 [8]: 633 nM | TGI [8]: 2930 nM | GI50 [9]: 1420 nM | TGI [9]: 2780 nM | GI50 [10]: 1150 nM | TGI [10]: 2410 nM

COc1cccc(-c2cc(NCc3ccc4c(c3)OCO4)nc(N)n2)c1
GI50 [1]: 81.9 nM | TGI [1]: 12900 nM | GI50 [2]: 1060 nM | TGI [2]: 32400 nM | GI50 [3]: 76.2 nM | TGI [3]: > 100000 nM | GI50 [4]: 362 nM | TGI [4]: 17400 nM | GI50 [5]: 72 nM | TGI [5]: 8180 nM | GI50 [6]: 112 nM | TGI [6]: 26300 nM | GI50 [7]: 60.7 nM | TGI [7]: 1270 nM | GI50 [8]: 172 nM | TGI [8]: 34200 nM | GI50 [9]: 110 nM | TGI [9]: 17200 nM | GI50 [10]: 72.4 nM | TGI [10]: 19700 nM

O=C(CCc1cc(-c2ccco2)n(-c2ccc([N+](=O)[O-])cc2[N+](=O)[O-])n1)Nc1ccccc1
TGI [1]: > 100000 nM | TGI [2]: > 100000 nM | TGI [3]: > 100000 nM | TGI [4]: > 100000 nM | TGI [5]: > 100000 nM | TGI [6]: 94200 nM | TGI [7]: > 100000 nM | TGI [8]: > 100000 nM | TGI [9]: > 100000 nM | TGI [10]: > 100000 nM

Cc1cccc2c(=O)c3c(sc12)c(NCCN)nc1ccccc13
GI50 [1]: 917 nM | TGI [1]: 1690 nM | GI50 [2]: 851 nM | TGI [2]: 2850 nM | GI50 [3]: 878 nM | TGI [3]: 1830 nM | GI50 [4]: 728 nM | TGI [4]: 1650 nM | GI50 [5]: 913 nM | TGI [5]: 1770 nM | GI50 [6]: 841 nM | TGI [6]: 1590 nM | GI50 [7]: 863 nM | TGI [7]: 1750 nM | GI50 [8]: 851 nM | TGI [8]: 1890 nM | GI50 [9]: 1030 nM | TGI [9]: 2750 nM | GI50 [10]: 936 nM | TGI [10]: 1700 nM

O=C(Nc1cccc(-n2cc(-c3ccncc3)c(-c3ccc(O)c(Cl)c3)n2)c1)Nc1ccc(Cl)c(C(F)(F)F)c1
GI50 [1]: 2080 nM | TGI [1]: 8180 nM | GI50 [2]: 2020 nM | TGI [2]: 7330 nM | GI50 [3]: 1770 nM | TGI [3]: 6310 nM | GI50 [4]: 3150 nM | TGI [4]: 9770 nM | GI50 [5]: 1610 nM | TGI [5]: 3260 nM | GI50 [6]: 2430 nM | TGI [6]: 7590 nM | GI50 [7]: 1640 nM | TGI [7]: 4160 nM | GI50 [8]: 1670 nM | TGI [8]: 4630 nM | GI50 [9]: 1190 nM | TGI [9]: 3740 nM | GI50 [10]: 1670 nM | TGI [10]: 3800 nM

N=C(N)c1ccc(-c2ccc(-c3ccco3)o2)cc1F
GI50 [1]: 1740 nM | TGI [1]: 4080 nM | GI50 [2]: 1780 nM | TGI [2]: 4640 nM | GI50 [3]: 2770 nM | TGI [3]: 8160 nM | GI50 [4]: 2960 nM | TGI [4]: 10400 nM | GI50 [5]: 1920 nM | TGI [5]: 3620 nM | GI50 [6]: 1740 nM | TGI [6]: 3380 nM | GI50 [7]: 2310 nM | TGI [7]: 6000 nM | GI50 [8]: 1950 nM | TGI [8]: 4680 nM | GI50 [9]: 1620 nM | TGI [9]: 3690 nM | GI50 [10]: 1810 nM | TGI [10]: 3670 nM

CCN1CCN(Cc2ccc3cc(C(=O)Nc4cc(NC(=O)c5ccc6c(c5)OCCO6)ccc4F)ccc3n2)CC1
GI50 [1]: 60.4 nM | TGI [1]: 13100 nM | GI50 [2]: 18 nM | TGI [2]: 103 nM | GI50 [3]: 118 nM | TGI [3]: 2540 nM | GI50 [4]: 61.7 nM | TGI [4]: 12000 nM | GI50 [5]: 78.6 nM | TGI [5]: 7630 nM | GI50 [6]: 39.4 nM | TGI [6]: 420 nM | GI50 [7]: 35.1 nM | TGI [7]: 427 nM | GI50 [8]: 40.3 nM | TGI [8]: 325 nM | GI50 [9]: 14.2 nM | TGI [9]: 72.9 nM | GI50 [10]: 118 nM | TGI [10]: 6750 nM

CCOC(=O)c1c2c(n3cccc(F)c13)C(=O)c1ncccc1C2=O
GI50 [1]: 114 nM | TGI [1]: 4990 nM | GI50 [2]: 56.2 nM | TGI [2]: 21800 nM | GI50 [3]: 3710 nM | TGI [3]: 37500 nM | GI50 [4]: 49.4 nM | TGI [4]: 5170 nM | GI50 [5]: 539 nM | TGI [5]: 18900 nM | GI50 [6]: 541 nM | TGI [6]: 6770 nM | GI50 [7]: 394 nM | TGI [7]: 3770 nM | GI50 [8]: 1910 nM | TGI [8]: 37300 nM | GI50 [9]: 412 nM | TGI [9]: 4100 nM | GI50 [10]: 486 nM | TGI [10]: 19400 nM

O=C(O)C#Cc1ccc([N+](=O)[O-])cc1
TGI [1]: > 100000 nM | TGI [2]: > 100000 nM | TGI [3]: > 100000 nM | TGI [4]: > 100000 nM | TGI [5]: > 100000 nM | TGI [6]: > 100000 nM | TGI [8]: > 100000 nM | TGI [9]: > 100000 nM | TGI [10]: > 100000 nM

COc1ccc2cc(C(=O)/C=C/c3ccccc3OC)ccc2c1
GI50 [1]: 5590 nM | TGI [1]: 21500 nM | GI50 [2]: 862 nM | TGI [2]: 4880 nM | GI50 [3]: 1160 nM | TGI [3]: 7520 nM | GI50 [4]: 7510 nM | TGI [4]: 25600 nM | GI50 [5]: 1600 nM | TGI [5]: 9510 nM | GI50 [6]: 8320 nM | TGI [6]: 67200 nM | GI50 [7]: 1930 nM | TGI [7]: 9670 nM | GI50 [8]: 1650 nM | TGI [8]: 10600 nM | GI50 [9]: 2540 nM | TGI [9]: 7630 nM | GI50 [10]: 21300 nM | TGI [10]: > 94800 nM

[O-][N+]1=C(c2ccccc2)COc2ccccc21
TGI [1]: > 100000 nM | TGI [2]: > 100000 nM | TGI [3]: > 100000 nM | TGI [4]: > 100000 nM | TGI [5]: > 100000 nM | TGI [6]: > 100000 nM | TGI [7]: > 100000 nM | TGI [8]: > 100000 nM | TGI [9]: > 100000 nM | TGI [10]: > 100000 nM

COC(=O)C12OCC34C(CC5C(C)=CC(=O)C(O)C5(C)C3C(O)C1O)OC(=O)C(OC(=O)CC(C)C)C24 (stereo not given)
GI50 [1]: 22.3 nM | TGI [1]: 107 nM and 207 nM | GI50 [2]: 120 nM and 87.6 nM | GI50 [3]: < 50.3 nM and 50 nM | GI50 [4]: 43.9 nM and 50 nM | GI50 [5]: 51.1 nM and 50 nM | GI50 [6]: < 35.6 nM | TGI [7]: 1.18 nM | GI50 [8]: < 28.9 nM | GI50 [9]: 42.7 nM and 50 nM | GI50 [10]: < 35.2 nM and 50 nM

COc1ccc2c(c1)c(=O)oc1cc(OC/C(=N\O)c3ccc(F)cc3)ccc12
GI50 [1]: 13600 nM | TGI [1]: 33700 nM | GI50 [2]: 19900 nM | TGI [2]: 47800 nM | GI50 [3]: 7070 nM | TGI [3]: > 100000 nM | GI50 [4]: 18900 nM | TGI [4]: 41800 nM | GI50 [5]: 19700 nM | TGI [5]: 43800 nM | GI50 [6]: 16300 nM | TGI [6]: 44200 nM | GI50 [7]: 14900 nM | TGI [7]: 37800 nM | GI50 [8]: 16700 nM | TGI [8]: 56400 nM | GI50 [9]: 21800 nM | TGI [9]: 58600 nM | GI50 [10]: 15700 nM | TGI [10]: 31000 nM

O=C(Nc1cccc2ccccc12)c1cc2ccccc2cc1O
GI50 [1]: 3430 nM | TGI [1]: 17200 nM | GI50 [2]: 1750 nM | TGI [2]: 4520 nM | GI50 [3]: 2910 nM | TGI [3]: 12100 nM | GI50 [4]: 3250 nM | TGI [4]: 18100 nM | GI50 [5]: 2730 nM | TGI [5]: 8010 nM | GI50 [6]: 562 nM | TGI [6]: 3900 nM | GI50 [7]: 1660 nM | TGI [7]: 4830 nM | GI50 [8]: 1410 nM | TGI [8]: 9220 nM | GI50 [9]: 2710 nM | TGI [9]: 6680 nM | GI50 [10]: 3580 nM | TGI [10]: 22400 nM

— PubChem BioAssay (NCI)
